Test results reported in ChEMBL document CHEMBL5523676, “Design, synthesis, and anti-cancer evaluation of C-14 arylcarbamate derivatives of andrographolide” (Bioorg Med Chem, 2024).
Calls of active or inactive are those of the source. The calls are words filed in the database; no cut-off is given here.

How the values were obtained:
PANC-1 [1] = experiment: Antiproliferative activity against human PANC-1 cells assessed as inhibition of cell growth measured after 48 hrs by MTT assay; assay type: functional, cell-based; details: PANC-1, 48 h
PANC-1 [2] = experiment: Inhibition of p53 R273H protein level in human PANC-1 cells at 15 uM measured after 24 hrs by Western blot analysis; assay type: functional, cell-based
PANC-1 [3] = experiment: Inhibition of p53 R273H mutant protein level in human PANC-1 cells at 10 uM measured after 24 hrs by Western blot analysis; assay type: functional, cell-based
MIA PaCa-2 [4] = experiment: Antiproliferative activity against human MIA PaCa-2 cells assessed as inhibition of cell growth measured after 48 hrs by MTT assay; assay type: functional, cell-based; details: MIA PaCa-2, 48 h
MIA PaCa-2 [5] = experiment: Inhibition of p53 […] mutant protein level in human MIA PaCa-2 cells at 20 uM measured after 24 hrs by Western blot analysis; assay type: functional, cell-based
[6] = Antiproliferative activity against human HPDE cells assessed as inhibition of cell growth measured after 48 hrs by MTT assay; assay type: toxicity, cell-based
[7] = Antiproliferative activity against human HEK293 cells assessed as inhibition of cell growth measured after 48 hrs by MTT assay; assay type: toxicity, cell-based
[8] = Antiproliferative activity against human IMR-90 cells assessed as inhibition of cell growth measured after 48 hrs by MTT assay; assay type: toxicity, cell-based
MIA PaCa-2 [9] = experiment: Antiproliferative activity against human MIA PaCa-2 cells assessed as suppression of cell growth at 30 uM measured after 48 hrs by MTT assay; assay type: functional, cell-based
PANC-1 [10] = experiment: Inhibition of cell migration in human PANC-1 cells at 10 uM incubated for 12 hrs by crystal violet staining based microscopic analysis; assay type: functional
PANC-1 [11] = experiment: Antiproliferative activity against human PANC-1 cells assessed as inhibition of cell growth at upto 20 uM measured after 12 hrs by MTT assay; assay type: functional, cell-based
MIA PaCa-2 [12] = experiment: Inhibition of cell migration in human MIA PaCa-2 cells at 10 uM incubated for 24 hrs by crystal violet staining based microscopic analysis; assay type: functional
PANC-1 [13] = experiment: Inhibition of colony formation in human PANC-1 cells assessed as decrease in colony numbers measured after 24 hrs by crystal violet staining based analysis; assay type: functional, cell-based; details: dose 1-30 µM
MIA PaCa-2 [14] = experiment: Inhibition of colony formation in human MIA PaCa-2 cells at 1 to 30 uM measured after 24 hrs by crystal violet staining based analysis; assay type: functional, cell-based; details: dose 1-30 µM

**Q.** What does the source list for `C=C1CC[C@@H]2[C@]3(C)COC(C)(C)O[C@@H]3CC[C@@]2(C)[C@@H]1C/C=C1/C(=O)OC[C@H]1OC(=O)Nc1cccc(C#N)c1`?
**A.** IC50 (PANC-1 [1]): 15.2 µM; inhibition (PANC-1 [2]): Active

**Q.** With `C=C1CC[C@@H]2[C@]3(C)COC(C)(C)O[C@@H]3CC[C@@]2(C)[C@@H]1C/C=C1/C(=O)OC[C@H]1OC(=O)Nc1cccc(C(C)=O)c1` as the compound, how does the IC50 (PANC-1 [1]) read?
**A.** Its IC50 is 10.9 µM.

**Q.** What about the inhibition (PANC-1 [3]) of the same compound?
**A.** The inhibition was “Active”.

**Q.** And the IC50 (MIA PaCa-2 [4])?
**A.** Its IC50 is greater than 30 µM.

**Q.** And the inhibition (MIA PaCa-2 [5])?
**A.** The inhibition was “Active”.

**Q.** With `C=C1CC[C@@H]2[C@]3(C)COC(C)(C)O[C@@H]3CC[C@@]2(C)[C@@H]1C/C=C1/C(=O)OC[C@H]1OC(=O)Nc1ccc(Br)cc1` as the compound, how does the IC50 (PANC-1 [1]) read?
**A.** The IC50 was 10.2 µM.

**Q.** And the IC50 (MIA PaCa-2 [4])?
**A.** The IC50 was greater than 30 µM.

**Q.** Which results are given for `C=C1CC[C@@H]2[C@]3(C)COC(C)(C)O[C@@H]3CC[C@@]2(C)[C@@H]1C/C=C1/C(=O)OC[C@H]1OC(=O)Nc1ccccc1`?
**A.** IC50 (PANC-1 [1]): 9.56 µM; IC50 at 48 h [6]: > 30 µM; IC50 at 48 h [7]: > 30 µM; IC50 at 48 h [8]: > 30 µM; inhibition (PANC-1 [3]): Active; IC50 (MIA PaCa-2 [4]): 25.7 µM; Activity (MIA PaCa-2 [9]): Active; inhibition (MIA PaCa-2 [5]): Active; inhibition (PANC-1 [10]): Active; Activity (PANC-1 [11]): inactive; inhibition (MIA PaCa-2 [12]): Active; inhibition (PANC-1 [13]): Dose-Dependent Effect; inhibition (MIA PaCa-2 [14]): Active

**Q.** Which IC50 (PANC-1 [1]) does the source give for `C=C1CC[C@@H]2[C@]3(C)COC(C)(C)O[C@@H]3CC[C@@]2(C)[C@@H]1C/C=C1/C(=O)OC[C@H]1OC(=O)Nc1cccc(Br)c1` here?
**A.** Its IC50 is 16 µM.

**Q.** With `C=C1CC[C@@H]2[C@]3(C)COC(C)(C)O[C@@H]3CC[C@@]2(C)[C@@H]1C/C=C1/C(=O)OC[C@H]1OC(=O)Nc1cccc(OC)c1` as the compound, how does the IC50 (PANC-1 [1]) read?
**A.** The IC50 was 10.8 µM.

**Q.** With `C=C1CC[C@@H]2[C@](C)(CO)[C@H](O)CC[C@@]2(C)[C@@H]1C/C=C1/C(=O)OC[C@H]1O` [ANDROGRAPHOLIDE] as the compound, how does the IC50 (PANC-1 [1]) read?
**A.** Its IC50 is 20.4 µM.

**Q.** And the IC50 (MIA PaCa-2 [4])?
**A.** Its IC50 is 21.1 µM.

**Q.** And the Activity (MIA PaCa-2 [9])?
**A.** The Activity was “Active”.

**Q.** What about the inhibition (PANC-1 [10]) of the same compound?
**A.** Its inhibition is “Active”.

**Q.** And the Activity (PANC-1 [11])?
**A.** Its Activity is “inactive”.

**Q.** And the inhibition (PANC-1 [13])?
**A.** The inhibition was “Dose-Dependent Effect”.

**Q.** For `C=C1CC[C@@H]2[C@]3(C)COC(C)(C)O[C@@H]3CC[C@@]2(C)[C@@H]1C/C=C1/C(=O)OC[C@H]1OC(=O)Nc1ccc(Cl)cc1`, which IC50 (PANC-1 [1]) is on record?
**A.** The IC50 was 29.1 µM.

**Q.** With `C=C1CC[C@@H]2[C@]3(C)COC(C)(C)O[C@@H]3CC[C@@]2(C)[C@@H]1C/C=C1/C(=O)OC[C@H]1OC(=O)Nc1cc(C)cc(C)c1` as the compound, how does the IC50 (PANC-1 [1]) read?
**A.** Its IC50 is greater than 30 µM.

**Q.** With `C=C1CC[C@@H]2[C@]3(C)COC(C)(C)O[C@@H]3CC[C@@]2(C)[C@@H]1C/C=C1/C(=O)OC[C@H]1OC(=O)Nc1cccc(C(F)(F)F)c1` as the compound, how does the IC50 (PANC-1 [1]) read?
**A.** Its IC50 is greater than 30 µM.

**Q.** With `C=C1CC[C@@H]2[C@]3(C)COC(C)(C)O[C@@H]3CC[C@@]2(C)[C@@H]1C/C=C1/C(=O)OC[C@H]1OC(=O)Nc1ccc(NC(C)=O)cc1` as the compound, how does the IC50 (PANC-1 [1]) read?
**A.** Its IC50 is greater than 30 µM.

**Q.** Which results are given for `C=C1CC[C@@H]2[C@]3(C)COC(C)(C)O[C@@H]3CC[C@@]2(C)[C@@H]1C/C=C1/C(=O)OC[C@H]1OC(=O)Nc1cc(F)ccc1F`?
**A.** IC50 (PANC-1 [1]): 15.1 µM; inhibition (PANC-1 [2]): Active; IC50 (MIA PaCa-2 [4]): > 30 µM

**Q.** Which results are given for `C=C1CC[C@@H]2[C@]3(C)COC(C)(C)O[C@@H]3CC[C@@]2(C)[C@@H]1C/C=C1/C(=O)OC[C@H]1OC(=O)Nc1ccc(F)cc1F`?
**A.** IC50 (PANC-1 [1]): > 30 µM; Activity (MIA PaCa-2 [9]): Active

**Q.** Which IC50 (PANC-1 [1]) does the source give for `C=C1CC[C@@H]2[C@]3(C)COC(C)(C)O[C@@H]3CC[C@@]2(C)[C@@H]1C/C=C1/C(=O)OC[C@H]1OC(=O)Nc1ccc([N+](=O)[O-])cc1` here?
**A.** Its IC50 is 13.6 µM.
